Assays:
[1] = Photostability (photooxidation kinetics) of free dyes under 780 nm LED; assay type: physicochemical; settings: for photooxidation k: 1 μM in 50 mM PBS pH 7.4, 780 nm+/−20 nm LED, 20 mW/cm^2
Procedure: Stock solutions of 5 mM FNIR-Tag and IRDye®-800CW in DMSO were diluted into 50 mM PBS (pH=7.4) to afford 1 μM solutions. The photostability was determined using a procedure described previously using a 780 nm+/−20 nm LED at a light intensity of 20 mW/cm^2 (Nani et al., ACS Central Sci 2017, 3:329). […] As expected both of the free dyes have similar photostability.

[2] = Absorption/emission maxima, molar absorption coefficient, absolute quantum yield and brightness of free dyes; assay type: physicochemical; settings: free dye; for ε / λabs / ΦF (PBS): PBS; for ΦF (PBS): absolute quantum yield; for ε × ΦF: brightness in PBS; for Relative brightness (PBS): relative to FNIR-Tag = 1.0; for λem: λexcitation = 740 nm
Procedure: Determination of Molar Absorption Coefficients and Absolute Fluorescence Quantum Yields: Molar absorption coefficients (c) were determined in PBS (pH 7.4) or 1:1 (v/v) MeOH/PBS (pH 7.4) using Beer's law, from plots of absorbance vs. concentration. Measurements were performed in 10 mm path length quartz cuvettes (Hellma 111-QS), maintained at 25° C., with absorbance at the highest concentration≤0.20.
(§1) Absolute quantum yields (ΦF) were measured using a Quantaurus-QY spectrometer (Hamamatsu, model C11374). This instrument is equipped with an integrating sphere to determine photons absorbed and emitted by a sample. Measurements were carried out at a concentration of 500 nM in PBS (50 mM, pH 7.4) and self-absorption corrections were performed using the instrument software.
Properties of FNIR-Tag and IRDye®-800CW are shown below in Table 1. […] Both dyes have similar absorption coefficients (ε), absolute quantum yields (ΦF) and brightness (ε×ΦF) in PBS solution, with free IR-800CW being slightly brighter

EGFR+ tumors = assay: In vivo fluorescence imaging of panitumumab conjugates, 100 μg dose; parameters: species or system athymic nude mice; settings: for tumor radiance output relative to IRDye-800CW conjugate: 48 h (peak accumulation), normalized to tumor size
Procedure: (§2) Animal Tumors Models: In vivo studies were performed according to the Frederick National Laboratory for Cancer Research (Frederick, Md.) Animal Care and Use committee guidelines. Fluorescence was longitudinally monitored employing the IVIS spectrum imager (PerkinElmer Inc, Waltham, Mass.). Imager specific Living Image software was used for image acquisition and analysis. Mice body temperature were maintained constant at 37° C. during the imaging procedure with a heated pad located under the anesthesia induction chamber, imaging table, and post procedure recovery cage. All mice were anesthetized in the induction chamber with 3% isoflurane with filtered (0.2 μm) air at 1 liter/minute flow rate for 3-4 minutes and then modified for imaging to 2% with O2 as a carrier with a flow rate of 1 liter/minute. Static 2D images were acquired with the following parameters: excitation filter 745±15 nm, emission filter 800±10 nm, f/stop2, medium binning (8×8) and auto exposure (typically 1-60 seconds). 5-week old female athymic nude mice were purchased from Charles River Laboratories International, Inc. (NCI-Frederick). MDA-MB-468 (5×10^6) in 100 μL of Hanks Balanced Salt Solution were injected the mice subcutaneously in the right dorsum. The size of the tumors were continuously monitored to reach 4-6 mm. In vivo studies were initiated 10 days post cell injection of the mice.
(§3) Data Analysis: Images were obtained using a Pearl Imager (LI-COR) using 800 nm fluorescence channel. Using white light images, the tumors were identified, and regions of interest (ROIs) were located on the tumors, livers, and necks (used as background). The intensities of ROIs were measured based on the total radiance efficiency using fluorescence images and analyzed using Living Image software. Statistics (unpaired t-test) were carried out using Prism 8.
Reduced dye aggregation was speculated to impact the pharmacokinetics. […] Fluorescence dorsal and ventral images were recorded at 0 h, 10 min, 24 h, 48 h, and 1 week post-injection. […]

[3] = Photochemical properties of panitumumab conjugates (absorption/emission spectra, H-aggregation, absolute quantum yield); assay type: physicochemical
Procedure: as §1
The photochemical properties of these conjugates were analyzed by several methods. Absorption/emission curves were obtained following dilution in 50 mM PBS to yield solutions that were 500 nM in protein concentration. […] A 3 h incubation time at room temperature elapsed prior to acquisition. Conjugates were diluted 40-fold into 1:1 MeOH:50 mM PBS and their absorption spectra were recorded on a plate reader using a 384 well plate transparent in the 280 nm range (i.e. UV Co-Star μclear 384 well plate from Greiner Bio-One).
To examine the relative brightness of these conjugates on an in vivo system, phantom imaging on the Perkin-Elmer IVIS® imaging system was performed.

MDA-MB-468 tumor = assay: Dose lowering in vivo imaging study (10, 5, 1 μg) of DOL 4 conjugates; parameters: species or system athymic nude mice; settings: for tumor signal visualization over dosage range: DOL 4, 10, 5 and 1 μg tail injection
Procedure: as §2, §3
A dose lowering study with the goal of defining an optimal dose for FNIR-Tag conjugates was performed. Three doses, 10 μg, 5 μg, and 1 μg, which span the lower end of the doses used in prior studies, were examined. […]

[4] = panitumumab conjugates DOL 1, 2, 4, 500 nM in PBS

Molecule	photooxidation k [1]	ε [2]	λabs [2]	ΦF (PBS) [2]	ε × ΦF [2]	Relative brightness (PBS) [2]	λem [2]	λem ([2]; listed as IR-800CW)	liver uptake (liver-to-background ratio) compared with FNIR-Tag conjugates (EGFR+ tumors; 100 μg, DOL 2 and 4, 10 min time point)	fluorescent emission as function of labeling density [3, 4]	half-life at 1 μM ([1]; buffer, pH 7.4)	tumor radiance output relative to IRDye-800CW conjugate (EGFR+ tumors; DOL 2, 100 μg tail injection)	tumor radiance output relative to IRDye-800CW conjugate (EGFR+ tumors; DOL 4, 100 μg tail injection)	quantum yield of the free dye ([3]; free dye)	H-aggregate peak in the absorption spectrum (~705 nm) [3, 4]	tumor signal visualization over dosage range (MDA-MB-468 tumor)	absolute quantum yield of fluorescence (ΦF), end of decrease with increased labeling ([3]; antibody conjugates, high labeling, PBS, 250 nM effective dye concentration)	absolute quantum yield of fluorescence (ΦF), start of decrease with increased labeling ([3]; antibody conjugates, low labeling, PBS, 250 nM effective dye concentration)	fluorescence intensity (total radiance normalized to tumor size) compared with IRDye-800CW conjugates (MDA-MB-468 tumor; DOL 4, 10, 5, 1 μg, 4 h to 7 days)	absolute quantum yield of fluorescence (ΦF) with increasing labeling density ([3]; conjugates DOL 1, 2, 4, PBS, 250 nM effective dye concentration)
CC1(C)C(=CC=C2CCCC(C=CC3=[N+](CCCCCC(=O)[O-])c4ccc(S(=O)(=O)[O-])cc4C3(C)C)=C2Oc2ccc(S(=O)(=O)[O-])cc2)N(CCCCS(=O)(=O)[O-])c2ccc(S(=O)(=O)[O-])cc21.[Na+].[Na+].[Na+].[Na+] [IRDye®-800CW]	0.04463	240 000 M^−1 · cm^−1	774 nm	0.087	23 490	1.2	795ª nm	795 nm	significantly higher liver uptake	nearly constant across the range of labeling density	–	–	–	–	–	–	–	–	–	–
COCCOCCOCCN1/C(=C/C=C2\CCCC(/C=C/C3=[N+](CCOCCOCCOC)c4ccc(S(=O)(=O)[O-])cc4C3(C)C)=C2OCCC[N+](C)(C)CCCC(=O)ON2C(=O)CCC2=O)C(C)(C)c2cc(S(=O)(=O)[O-])ccc21 [FNIR-Tag]	0.04274	200 000 M^−1 · cm^−1	765 nm	0.099	19 800	1.0	–	–	–	–	16.2 min	2.5 ×	7.1 ×	10%	does not form a significant H-aggregate band	–	–	–	–	–
IRDye®-800CW conjugates: panitumumab labeled with IRDye®-800CW-NHS, comparator conjugates [reference compound]	–	–	–	–	–	–	–	–	–	–	–	–	–	–	–	could not be visualized below 5 μg	~2.5%	~9%	–	–
FNIR-Tag-panitumumab conjugates	–	–	–	–	–	–	–	–	–	increases with higher labeling density	–	–	–	–	–	Clearly discernable signals	–	–	significantly higher fluorescence intensity	~10%
